Assay results reported in ChEMBL document CHEMBL3817825, “Synthesis and biological evaluation of Schiff base-linked imidazolyl naphthalimides as novel potential anti-MRSA agents” (2016).
≈ marks a conversion by molar mass, not a printed value. Calls of active or inactive are those of the source. The rule behind the calls is not given here.

Tests used:
[1] = test system: Calf thymus DNA; test: Binding affinity to calf thymus DNA at 260 nm by UV-Vis spectroscopy; type: nucleic-acid assay; details: Bos taurus
[2] = test system: Staphylococcus aureus; test: Potency index, ratio of chloromycin MIC to compound MIC for methicillin-resistant Staphylococcus aureus N315; type: functional
[3] = test system: Saccharomyces cerevisiae; test: Antifungal activity against Beer yeast ATCC9763 after 24 hrs by two fold serial dilution method; type: functional; details: ATCC9763, 24 h
[4] = test system: Pseudomonas aeruginosa; test: Antibacterial activity against Pseudomonas aeruginosa ATCC27853 after 24 hrs by two fold serial dilution method; type: functional; details: ATCC27853, 24 h
[5] = test system: Staphylococcus aureus; test: Antibacterial activity against Staphylococcus aureus ATCC25923 after 24 hrs by two fold serial dilution method; type: functional; details: ATCC25923, 24 h
[6] = test system: Staphylococcus aureus; test: Antibacterial activity against methicillin-resistant Staphylococcus aureus N315 after 24 hrs by two fold serial dilution method; type: functional; details: N315, 24 h
[7] = test system: Staphylococcus aureus; test: Potency index, ratio of norfloxacin MIC to compound MIC for methicillin-resistant Staphylococcus aureus N315; type: functional
[8] = test system: Bacillus subtilis; test: Antibacterial activity against Bacillus subtilis ATCC6633 after 24 hrs by two fold serial dilution method; type: functional; details: ATCC6633, 24 h
[9] = test system: Calf thymus DNA; test: Binding affinity to neutral red bound calf thymus DNA assessed as increase in absorption at 460 nm at 0 to 10.5 X 10^-5 mol/L by UV-Vis spectroscopy; type: nucleic-acid assay; details: Bos taurus
[10] = test system: Cyberlindnera jadinii; test: Antifungal activity against Candida utilis ATCC9950 after 24 hrs by two fold serial dilution method; type: functional; details: Williopsis jadinii, ATCC9950, 24 h
[11] = test system: Salmonella typhi; test: Antibacterial activity against Bacillus typhi after 24 hrs by two fold serial dilution method; type: functional, Salmonella enterica subsp. enterica serovar Typhi; details: Salmonella enterica
[12] = test system: Calf thymus DNA; test: Binding affinity to calf thymus DNA assessed as hypochromism at 260 nm at 0 to 9 X 10^-5 mol/L by UV-Vis spectroscopy; type: nucleic-acid assay; details: Bos taurus
[13] = test system: Escherichia coli; test: Antibacterial activity against Escherichia coli JM109 after 24 hrs by two fold serial dilution method; type: functional; details: JM109, 24 h
[14] = test system: Staphylococcus aureus; test: Antibacterial activity against methicillin-resistant Staphylococcus aureus N315 assessed as membrane permeabilization at 12 times MIC monitored for 2 hrs by propidium iodide staining method; type: functional, organism-based
[15] = test system: Staphylococcus aureus; test: Antibacterial activity against methicillin-resistant Staphylococcus aureus N315 at 0.5 times MIC after 10 passages by two fold serial dilution method; type: functional, organism-based
[16] = test system: Micrococcus luteus; test: Antibacterial activity against Micrococcus luteus ATCC4698 after 24 hrs by two fold serial dilution method; type: functional; details: ATCC4698, 24 h
[17] = test system: Bacillus; test: Antibacterial activity against Bacillus proteus ATCC13315 after 24 hrs by two fold serial dilution method; type: functional; details: ATCC13315, 24 h
[18] = test system: Escherichia coli; test: Antibacterial activity against Escherichia coli DH52 after 24 hrs by two fold serial dilution method; type: functional; details: DH52, 24 h
[19] = test system: Staphylococcus aureus; test: Ratio of MIC for methicillin-resistant Staphylococcus aureus N315 after 10 passages to MIC for methicillin-resistant Staphylococcus aureus N315 before 10 passages; type: functional
[20] = test system: Bacillus; test: Antibacterial activity against Bacillus proteus ATCC13315 assessed as membrane permeabilization at 12 times MIC monitored for 2 hrs by propidium iodide staining method; type: functional, organism-based
[21] = test system: Candida albicans; test: Antifungal activity against Candida albicans ATCC76615 after 24 hrs by two fold serial dilution method; type: functional; details: ATCC76615, 24 h
[22] = test system: Candida; test: Antifungal activity against Candida mycoderma ATCC10231 after 24 hrs by two fold serial dilution method; type: functional; details: ATCC10231, 24 h
[23] = test system: Staphylococcus aureus; test: Bactericidal activity against methicillin-resistant Staphylococcus aureus N315 assessed as reduction in viable bacterial count at 6 times MIC within 1.5 hrs by time kill assay; type: functional
[24] = test system: Shigella dysenteriae; test: Antibacterial activity against Shigella dysenteriae after 24 hrs by two fold serial dilution method; type: functional
[25] = test system: Aspergillus flavus; test: Antifungal activity against Aspergillus flavus ATCC204304 after 24 hrs by two fold serial dilution method; type: functional; details: ATCC204304, 24 h
[26] = test system: Cyberlindnera jadinii; test: Potency index, ratio of fluconazole MIC to compound MIC for Candida utilis ATCC9950; type: functional

| SMILES | MIC [3] [µM] | MIC [4] [µM] | MIC [5] [µM] | MIC [6] [µM] | MIC [8] [µM] | MIC [10] [µM] | MIC [11] [µM] | MIC [13] [µM] | MIC [16] [µM] | MIC [17] [µM] | MIC [18] [µM] | MIC [21] [µM] | MIC [22] [µM] | MIC [24] [µM] | MIC [25] [µM] | also measured |
| --- | --- | --- | --- | --- | --- | --- | --- | --- | --- | --- | --- | --- | --- | --- | --- | --- |
| CCCCc1nc(Cl)c(/C=N/N2C(=O)c3cccc4c(N5CCOCC5)ccc(c34)C2=O)n1Cc1ccc([N+](=O)[O-])cc1 | 420 (≈ 252 µg/mL) | 50 (≈ 30.1 µg/mL) | 210 (≈ 126 µg/mL) | 3 (≈ 1.8 µg/mL) | 210 (≈ 126 µg/mL) | 10 (≈ 6.01 µg/mL) | 0.11 (≈ 0.0661 µg/mL) | 50 (≈ 30.1 µg/mL) | 850 (≈ 511 µg/mL) | 110 (≈ 66.1 µg/mL) | 420 (≈ 252 µg/mL) | 3 (≈ 1.8 µg/mL) | 50 (≈ 30.1 µg/mL) | 0.11 (≈ 0.0661 µg/mL) | 110 (≈ 66.1 µg/mL) | K [1]: 0.59 ×10⁴ L/mol; Ratio [2]: 17; Ratio [7]: 7; Activity [9]: Active; Activity [12]: Active; Activity [14]: Active; Activity [15]: Active; Ratio [19]: <=100; Activity [20]: Active; Activity [23]: >3 log10CFU/ml |
| CCCCCCCCCCn1c(CCCC)nc(Cl)c1/C=N/N1C(=O)c2cccc3c(N4CCOCC4)ccc(c23)C1=O | 420 (≈ 255 µg/mL) | 420 (≈ 255 µg/mL) | 420 (≈ 255 µg/mL) | 30 (≈ 18.2 µg/mL) | 30 (≈ 18.2 µg/mL) | 3 (≈ 1.82 µg/mL) | 0.84 (≈ 0.509 µg/mL) | 840 (≈ 509 µg/mL) | 840 (≈ 509 µg/mL) | 210 (≈ 127 µg/mL) | 420 (≈ 255 µg/mL) | 210 (≈ 127 µg/mL) | 210 (≈ 127 µg/mL) | 0.1 (≈ 0.0606 µg/mL) | 210 (≈ 127 µg/mL) | Ratio [26]: 10 |
